One may read the Kd as the constant that tells how readily two partners part at equilibrium.

One assay has as its target WDR5 (Homo sapiens (Human), UniProt P61964). The experiment in a line: Surface Plasmon Resonance (SPR) assay, KD and residence time. The note with it: SPR, Table 2; read-out: WDR5 binding affinity (KD). The class given is binding.
Regarding `CC(=O)Nc1cc(C(F)(F)F)c(C(=O)Nc2cc(-c3cnc(N4CCOCC4)nc3)c(F)cc2N2C[C@@H](C)N(C)[C@@H](C)C2)cn1` [Example 27, 6-acetamido-N-[4-fluoro-5-(2-morpholin-4-ylpyrimidin-5-yl)-2-[(3R,5S)-3,4,5-trimethylpiperazin-1-yl]phenyl]-4-(trifluoromethyl)pyridine-3-carboxamide], the dissociation constant Kd was found to be 0.294 µM.

The same assay, now with this note: surface plasmon resonance (SPR) assay; read-out: WDR5 binding affinity (KD).
On to `COc1cc(=O)[nH]cc1C(=O)Nc1cc(-c2cnc(N3CCOCC3)nc2)c(F)cc1N1C[C@@H](C)N(C)[C@@H](C)C1` [Example 65, N-[4-fluoro-5-(2-morpholin-4-ylpyrimidin-5-yl)-2-[(3R,5S)-3,4,5-trimethylpiperazin-1-yl]phenyl]-4-methoxy-6-oxo-1H-pyridine-3-carboxamide], for which the dissociation constant Kd worked out at 0.0572 µM.
As for `CC1CN(c2cc(F)c(-c3cnc(N4CCOCC4)nc3)cc2NC(=O)c2n[nH]cc2Cl)CCN1C` (stereo in doubt) [Example 183, 4-chloro-N-[4-fluoro-5-(2-morpholin-4-ylpyrimidin-5-yl)-2-[(3R)-3,4-dimethylpiperazin-1-yl]phenyl]-1H-pyrazole-3-carboxamide], the dissociation constant Kd was 0.113 µM.
`C[C@@H]1CN(c2cc(F)c(-c3cnc(N4CCOCC4)nc3)cc2NC(=O)c2cccc(C(F)(F)F)c2)C[C@H](C)N1C` [Example 186, N-[4-fluoro-5-(2-morpholin-4-ylpyrimidin-5-yl)-2-[(3R,5S)-3,4,5-trimethylpiperazin-1-yl]phenyl]-3-(trifluoromethyl)benzamide]: the Kd was 0.0402 µM.
Same read-out and setting: then `COc1ccccc1C(=O)Nc1cc(-c2cnc(N3CCOCC3)nc2)c(F)cc1N1C[C@@H](C)N(C)[C@@H](C)C1` [Example 86, N-[4-fluoro-5-(2-morpholin-4-ylpyrimidin-5-yl)-2-[(3R,5S)-3,4,5-trimethylpiperazin-1-yl]phenyl]-2-methoxybenzamide], with 0.204 µM; and `C[C@@H]1CN(c2cc(F)c(-c3cnc(N4CCOCC4)nc3)cc2NC(=O)c2cc(C(F)(F)F)ccc2F)C[C@H](C)N1C` [Example 189, 2-fluoro-N-[4-fluoro-5-(2-morpholin-4-ylpyrimidin-5-yl)-2-[(3R,5S)-3,4,5-trimethylpiperazin-1-yl]phenyl]-5-(trifluoromethyl)benzamide], with 0.442 µM.
Still for that read-out and setting: then `C[C@@H]1CN(c2cc(F)c(C3=CCN(C(=O)N(C)C)CC3)cc2NC(=O)c2c[nH]c(=O)cc2C(F)(F)F)C[C@H](C)N1C` [Example 285, N-[5-[1-(dimethylcarbamoyl)-3,6-dihydro-2H-pyridin-4-yl]-4-fluoro-2-[(3R,5S)-3,4,5-trimethylpiperazin-1-yl]phenyl]-6-oxo-4-(trifluoromethyl)-1H-pyridine-3-carboxamide], with 0.00101 µM.
Regarding `C[C@@H]1CN(c2cc(F)c(-c3cnc4c(c3)OCCO4)cc2NC(=O)c2c[nH]c(=O)cc2C(F)(F)F)C[C@H](C)N1C` [Example 223, N-[5-(2,3-dihydro-[1,4]dioxino[2,3-b]pyridin-7-yl)-4-fluoro-2-[(3R,5S)-3,4,5-trimethylpiperazin-1-yl]phenyl]-6-oxo-4-(trifluoromethyl)-1H-pyridine-3-carboxamide], the Kd turned out to be 0.00163 µM.
With `C[C@@H]1CN(c2cc(F)c(-c3ccc(OCC4CC4)cc3)cc2NC(=O)c2cn(C)c(=O)cc2C(F)(F)F)C[C@H](C)N1C` [Example 228, N-[5-[4-(cyclopropylmethoxy)phenyl]-4-fluoro-2-[(3R,5S)-3,4,5-trimethylpiperazin-1-yl]phenyl]-1-methyl-6-oxo-4-(trifluoromethyl)pyridine-3-carboxamide], the dissociation constant Kd came out at 0.00726 µM.
As for `CC(=O)Nc1cc(C(F)(F)F)c(C(=O)Nc2cc(-c3cnc(N4CCOCC4)nc3)c(F)cc2N2C[C@@H](C)N(C)[C@@H](C)C2)cn1` [Example 27, 6-acetamido-N-[4-fluoro-5-(2-morpholin-4-ylpyrimidin-5-yl)-2-[(3R,5S)-3,4,5-trimethylpiperazin-1-yl]phenyl]-4-(trifluoromethyl)pyridine-3-carboxamide], the dissociation constant (Kd) was 0.294 µM.
The same measure, in the same setting: then `C[C@@H]1CN(c2ccc(-c3cc(NC(=O)c4c[nH]c(=O)cc4C(F)(F)F)c(N4C[C@@H](C)N(C)[C@@H](C)C4)cc3F)cn2)C[C@H](C)O1` [Example 272, N-[4-fluoro-5-[6-[(2R,6S)-2,6-dimethylmorpholin-4-yl]pyridin-3-yl]-2-[(3S,5R)-3,4,5-trimethylpiperazin-1-yl]phenyl]-6-oxo-4-(trifluoromethyl)-1H-pyridine-3-carboxamide], with 0.000532 µM.

Staying with this assay, now noted: surface plasmon resonance (SPR); read-out: WDR5 binding affinity (KD).
Consider `C[C@@H]1CN(c2cc(F)c(-c3ncc(C(=O)N(C)C4CCCCC4)s3)cc2NC(=O)c2c[nH]c(=O)cc2C(F)(F)F)C[C@H](C)N1C` [Example 499, N-cyclohexyl-2-[2-fluoro-5-[[6-oxo-4-(trifluoromethyl)-1H-pyridine-3-carbonyl]amino]-4-[(3R,5S)-3,4,5-trimethylpiperazin-1-yl]phenyl]-N-methyl-1,3-thiazole-5-carboxamide], for which the equilibrium dissociation constant (Kd) came out at 0.0034 µM.
On the same count and under the same terms, then `C[C@@H]1CN(c2ncc(-c3cc(NC(=O)c4ccc(F)cc4C(F)(F)F)c(N4C[C@@H](C)N(C)[C@@H](C)C4)cc3F)cn2)C[C@H](C)O1` [Example 431, 4-fluoro-N-[4-fluoro-5-[2-[(2R,6S)-2,6-dimethylmorpholin-4-yl]pyrimidin-5-yl]-2-[(3S,5R)-3,4,5-trimethylpiperazin-1-yl]phenyl]-2-(trifluoromethyl)benzamide], with 0.000649 µM; and `C[C@H]1CN(c2cc(F)c(C3=CCN(c4cnc(C#N)nc4)CC3)cc2NC(=O)c2c[nH]c(=O)cc2C(F)F)CCN1C` [Example 639, (S)—N-(5-(1-(2-cyanopyrimidin-5-yl)-1,2,3,6-tetrahydropyridin-4-yl)-2-(3,4-dimethylpiperazin-1-yl)-4-fluorophenyl)-4-(difluoromethyl)-6-oxo-1,6-dihydropyridine-3-carboxamide], with 0.00497 µM.
For the compound `C[C@@H]1CN(c2cc(F)c(-c3cnc(N4CCOC(C)(C)C4)nc3)cc2NC(=O)c2cn(C)c(=O)cc2C(F)(F)F)C[C@H](C)N1C` [Example 662, N-[5-[2-(2,2-dimethylmorpholin-4-yl)pyrimidin-5-yl]-4-fluoro-2-[(3R,5S)-3,4,5-trimethylpiperazin-1-yl]phenyl]-1-methyl-6-oxo-4-(trifluoromethyl)pyridine-3-carboxamide], the Kd was 0.00229 µM.
On the same count and under the same terms, the value for `C[C@@H]1CN(c2cc(F)c(-c3cnc(N4CCOC(C)(C)C4)nc3)cc2NC(=O)c2ccc(F)cc2C(F)(F)F)C[C@H](C)N1C` [Example 559, N-[5-[2-(2,2-dimethylmorpholin-4-yl)pyrimidin-5-yl]-4-fluoro-2-[(3R,5S)-3,4,5-trimethylpiperazin-1-yl]phenyl]-4-fluoro-2-(trifluoromethyl)benzamide] was 0.00292 µM; that for `C[C@@H]1CN(c2cc(F)c(-c3ccnc(N4CCOCC4)n3)cc2NC(=O)c2cn(C)c(=O)cc2C(F)F)C[C@H](C)N1C` [Example 746, 4-(difluoromethyl)-N-[4-fluoro-5-(2-morpholin-4-ylpyrimidin-4-yl)-2-[(3R,5S)-3,4,5-trimethylpiperazin-1-yl]phenyl]-1-methyl-6-oxopyridine-3-carboxamide] was 13600 µM; that for `CC1CN(c2cc(F)c(-c3ccc(N4CCNCC4)nc3)cc2NC(=O)c2ccc(F)cc2C(F)(F)F)CCN1C` (stereo in doubt) [Example 530, 4-fluoro-N-[4-fluoro-5-(6-piperazin-1-ylpyridin-3-yl)-2-[(3R)-3,4-dimethylpiperazin-1-yl]phenyl]-2-(trifluoromethyl)benzamide] was 0.00216 µM.
With `C[C@@H]1CN(c2cc(F)c(-c3ccc(N4CCNCC4)cc3)cc2NC(=O)c2c[nH]c(=O)cc2C(F)(F)F)C[C@H](C)N1C` [Example 549, N-[4-fluoro-5-(4-piperazin-1-ylphenyl)-2-[(3R,5S)-3,4,5-trimethylpiperazin-1-yl]phenyl]-6-oxo-4-(trifluoromethyl)-1H-pyridine-3-carboxamide], the Kd stood at 0.0008 µM.
Take `C[C@@H]1CN(c2cc(F)c(C3=CCN(c4ncc(C=O)cn4)CC3)cc2NC(=O)c2c[nH]c(=O)cc2C(F)F)C[C@H](C)N1C` [Example 646, 4-(difluoromethyl)-N-[4-fluoro-5-[1-(5-formylpyrimidin-2-yl)-3,6-dihydro-2H-pyridin-4-yl]-2-[(3R,5S)-3,4,5-trimethylpiperazin-1-yl]phenyl]-6-oxo-1H-pyridine-3-carboxamide]: the dissociation constant Kd amounted to 0.00141 µM.
Consider `C[C@@H]1CN(c2cc(F)c(-c3csc(C(=O)N(C)C4CCCCC4)n3)cc2NC(=O)c2c[nH]c(=O)cc2C(F)(F)F)C[C@H](C)N1C` [Example 534, N-cyclohexyl-4-[2-fluoro-5-[[6-oxo-4-(trifluoromethyl)-1H-pyridine-3-carbonyl]amino]-4-[(3R,5S)-3,4,5-trimethylpiperazin-1-yl]phenyl]-N-methyl-1,3-thiazole-2-carboxamide], for which the Kd came out at 0.00131 µM.
For the compound `C[C@H]1CN(c2cc(F)c(C3=CCN(C(=O)OC4(C)CCC4)C3)cc2NC(=O)c2c[nH]c(=O)cc2C(F)F)CCN1C` [Example 631, 1-Methylcyclobutyl (S)-3-(5-(4-(difluoromethyl)-6-oxo-1,6-dihydropyridine-3-carboxamido)-4-(3,4-dimethylpiperazin-1-yl)-2-fluorophenyl)-2,5-dihydro-1H-pyrrole-1-carboxylate], the Kd was 0.00265 µM.
Regarding `CC1CN(c2cc(F)c(-c3ccnc(N4CCOCC4)n3)cc2NC(=O)c2c[nH]c(=O)cc2C(F)F)CCN1C` (stereo in doubt) [Example 720, 4-(difluoromethyl)-N-[4-fluoro-5-(2-morpholin-4-ylpyrimidin-4-yl)-2-[(3R)-3,4-dimethylpiperazin-1-yl]phenyl]-6-oxo-1H-pyridine-3-carboxamide], the equilibrium dissociation constant (Kd) stood at 0.00131 µM.
Same read-out and setting: then `C[C@@H]1CN(c2cc(F)c(-c3csc(C(=O)NCC4CC4)n3)cc2NC(=O)c2cn(C)c(=O)cc2C(F)(F)F)C[C@H](C)N1C` [Example 523, N-(cyclopropylmethyl)-4-[2-fluoro-5-[[1-methyl-6-oxo-4-(trifluoromethyl)pyridine-3-carbonyl]amino]-4-[(3R,5S)-3,4,5-trimethylpiperazin-1-yl]phenyl]-1,3-thiazole-2-carboxamide], with 0.00459 µM; and `C[C@@H]1CN(c2cc(F)c(C3=CCN(c4ccc(C5CC5)nn4)CC3)cc2NC(=O)c2c[nH]c(=O)cc2C(F)(F)F)C[C@H](C)N1C` [Example 503, N-[5-[1-(6-cyclopropylpyridazin-3-yl)-3,6-dihydro-2H-pyridin-4-yl]-4-fluoro-2-[(3R,5S)-3,4,5-trimethylpiperazin-1-yl]phenyl]-6-oxo-4-(trifluoromethyl)-1H-pyridine-3-carboxamide], with 0.00244 µM.

(Values after US11319299B2, “Substituted carboxamides as inhibitors of WDR5 protein-protein binding” (PROPELLON THERAPEUTICS INC., priority 2016, dated 2022).)
